We go through five compounds from patent publication US12252524B2, “GIP/GLP1 co-agonist compounds” (Eli Lilly and Company, priority 2018, dated 2025).

Each structure is given as a SMILES string. Numbered stars: 1 amine (or outer) side, 2 acyl side, 3 side chain; on linkers, the order of the positions; unused ones are H or OH. Square brackets hold non-standard residues; d marks the D form. Side chains are listed from the residue outwards. Peptide text beside a SMILES is read from it. * marks the point of attachment. C20 diacid = O=C(O)CCCCCCCCCCCCCCCCCCC(=O)*; C18 diacid = O=C(O)CCCCCCCCCCCCCCCCC(=O)*; αMePhe(2-F) = C[C@](N)(Cc1ccccc1F)C(=O)O; γGlu = O=C(O)[C@H](CCC(=O)[*:2])N[*:1]; αMeY = C[C@](N)(Cc1ccc(O)cc1)C(=O)O; αMeF = C[C@](N)(Cc1ccccc1)C(=O)O; αMeL = CC(C)C[C@](C)(N)C(=O)O; Nle = CCCC[C@H](N)C(=O)O; Orn = NCCC[C@H](N)C(=O)O; AEEA = NCCOCCOCC(=O)O; Aib = CC(C)(N)C(=O)O

One assay addresses T1, human Gcg receptor (Homo sapiens, UniProt P47871).
T1 construct: expressed in transfected cells; crude membranes
As to the kind of experiment: [125I]-Glucagon binding (SPA), human Gcg receptor. Conditions: read-out: hGLcgR Ki, nM (SEM, n). In short, it runs like this:
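Crude membranes from cells expressing the receptor, prepared by hypotonic lysis in 50 mM Tris HCl pH 7.5 with protease inhibitors, homogenization and differential centrifugation, were used in a WGA-bead SPA. Binding buffer: 25 mM HEPES pH 7.4, 2.5 mM CaCl2, 1 mM MgCl2, bacitracin, Tween-20.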

In a further assay the target is T2, human GIP receptor (Homo sapiens, UniProt P48546).
T2 construct: expressed in transfected cells; crude membranes
T2 sequence (P48546 22-466): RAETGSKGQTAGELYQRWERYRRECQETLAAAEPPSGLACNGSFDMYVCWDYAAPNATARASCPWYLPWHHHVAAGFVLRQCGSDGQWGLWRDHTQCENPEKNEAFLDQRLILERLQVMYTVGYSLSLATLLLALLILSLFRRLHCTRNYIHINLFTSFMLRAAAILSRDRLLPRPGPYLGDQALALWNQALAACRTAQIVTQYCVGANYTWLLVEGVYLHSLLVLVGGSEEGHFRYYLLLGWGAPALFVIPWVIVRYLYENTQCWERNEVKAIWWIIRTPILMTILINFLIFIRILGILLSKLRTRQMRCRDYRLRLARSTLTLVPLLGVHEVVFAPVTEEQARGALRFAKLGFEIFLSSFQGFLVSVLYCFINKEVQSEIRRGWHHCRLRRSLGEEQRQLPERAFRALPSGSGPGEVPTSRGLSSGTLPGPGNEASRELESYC
As to the kind of experiment: [125I]-GIP binding (SPA), human GIP receptor. As to conditions: read-out: hGIPR Ki, nM (SEM, n).

Assay [1] concerns the target human GLP-1 receptor (GLP-1R) (Homo sapiens, UniProt P43220). Briefly: cAMP pharmacological functional assay in presence of casein, hGLP-1R. As to conditions: HEK293 cells expressing hGLP-1R, 0.1% Casein, geometric mean; read-out: hGLP1R cAMP Rel EC50 nM (SEM, n). It is filed as cell-based.
For assay [2], the target named is T3, gastric inhibitory peptide receptor (GIPR) (Homo sapiens, UniProt P48546).
T3 sequence (P48546 22-466): T2 sequence (P48546 22-466)
Briefly: cAMP pharmacological functional assay in presence of casein, hGIPR. It counts as cell-based. As to conditions: HEK293 cells expressing hGIPR, 0.1% Casein, geometric mean; read-out: hGIPR cAMP Rel EC50 nM (SEM, n).

The target of the next assay is human GLP-1R (Homo sapiens, UniProt P43220). As to the kind of experiment: [125I]-GLP-1 binding (SPA), human GLP-1 receptor. The arrangement: expressed in transfected cells; crude membranes. Conditions: read-out: hGLP1R Ki, (nM) (SEM, n). In a few lines:
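Membranes: hypotonic lysis (50 mM Tris HCl, pH 7.5, protease inhibitors), Potter-Elvehjem homogenization, high-speed pellet (35000×g 1 h or 25000×g 30 min, 4° C.). Buffer: 25 mM HEPES pH 7.4, 2.5 mM CaCl2, 1 mM MgCl2. Four-parameter IC50 fit; Ki as geometric mean ± SEM.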

Sequence of human GLP-1R (P43220 24-463): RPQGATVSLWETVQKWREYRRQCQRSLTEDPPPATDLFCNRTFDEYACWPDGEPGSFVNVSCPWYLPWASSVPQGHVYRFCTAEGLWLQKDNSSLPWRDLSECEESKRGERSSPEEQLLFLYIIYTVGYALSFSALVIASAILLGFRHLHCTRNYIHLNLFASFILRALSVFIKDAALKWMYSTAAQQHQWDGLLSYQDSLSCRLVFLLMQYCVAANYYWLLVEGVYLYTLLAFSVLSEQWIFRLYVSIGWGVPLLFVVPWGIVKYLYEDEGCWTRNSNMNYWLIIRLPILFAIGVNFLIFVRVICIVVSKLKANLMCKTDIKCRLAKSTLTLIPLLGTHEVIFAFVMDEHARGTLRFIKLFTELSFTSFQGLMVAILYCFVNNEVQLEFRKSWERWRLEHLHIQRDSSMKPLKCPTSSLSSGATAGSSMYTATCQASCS
Sequence of human GLP-1 receptor (GLP-1R) (P43220 24-463): as above
T1 sequence (P47871 26-477): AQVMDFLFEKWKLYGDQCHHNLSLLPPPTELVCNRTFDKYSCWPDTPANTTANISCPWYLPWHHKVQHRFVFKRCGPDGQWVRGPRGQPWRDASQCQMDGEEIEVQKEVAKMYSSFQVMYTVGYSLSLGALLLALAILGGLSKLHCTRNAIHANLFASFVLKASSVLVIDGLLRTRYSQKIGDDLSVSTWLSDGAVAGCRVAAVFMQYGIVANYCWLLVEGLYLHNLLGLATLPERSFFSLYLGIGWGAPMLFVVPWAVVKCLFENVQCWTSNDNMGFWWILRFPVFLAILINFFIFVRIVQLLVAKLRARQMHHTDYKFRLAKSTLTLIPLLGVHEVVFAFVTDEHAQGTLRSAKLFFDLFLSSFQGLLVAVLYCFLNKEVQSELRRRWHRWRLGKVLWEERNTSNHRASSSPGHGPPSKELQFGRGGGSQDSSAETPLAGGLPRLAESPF

Regarding `CCCC[C@H](NC(=O)[C@@H](NC(=O)[C@H](CO)NC(=O)[C@H](Cc1ccc(O)cc1)NC(=O)[C@H](CC(=O)O)NC(=O)[C@H](CO)NC(=O)[C@@H](NC(=O)[C@](C)(Cc1ccccc1F)NC(=O)[C@@H](NC(=O)CNC(=O)[C@H](CCC(=O)O)NC(=O)C(C)(C)NC(=O)[C@@H](N)Cc1ccc(O)cc1)[C@@H](C)O)[C@@H](C)O)[C@@H](C)CC)C(=O)N[C@@H](CC(C)C)C(=O)N[C@@H](CC(=O)O)C(=O)N[C@@H](CCCN)C(=O)N[C@@H](CCCCNC(=O)COCCOCCNC(=O)COCCOCCNC(=O)CC[C@H](NC(=O)CCCCCCCCCCCCCCCCC(=O)O)C(=O)O)C(=O)N[C@@H](C)C(=O)N[C@@H](CCC(N)=O)C(=O)NC(C)(C)C(=O)N[C@@H](CCC(=O)O)C(=O)N[C@@H](Cc1ccccc1)C(=O)N[C@H](C(=O)N[C@H](CCC(=O)O)C(=O)N[C@@H](Cc1ccc(O)cc1)C(=O)N[C@@H](CC(C)C)C(=O)N[C@H](C(=O)N[C@@H](CCC(=O)O)C(=O)NCC(=O)NCC(=O)N1CCC[C@H]1C(=O)N[C@@H](CO)C(=O)N[C@@H](CO)C(=O)NCC(=O)N[C@@H](C)C(=O)N1CCC[C@H]1C(=O)N1CCC[C@H]1C(=O)N1CCC[C@H]1C(=O)N[C@@H](CO)C(N)=O)[C@@H](C)CC)[C@@H](C)CC` [Example 249] (H-Y[Aib]EGT[αMePhe(2-F)]TSDYSI[Nle]LD[Orn]K([AEEA-AEEA-γGlu-C18 diacid])AQ[Aib]EFI[dE]YLIEGGPSSGAPPPS-NH2), the Ki (commonly the dissociation constant of the complex between target and ligand, obtained from inhibition or displacement) was more than 1000 nM on human Gcg receptor, 0.0394 nM at human GIP receptor and 2.35 nM at human GLP-1R. Moreover, the EC50 – broadly, the concentration at which the effect is half-maximal – in assay [1] is 0.0446 nM; in assay [2], 0.0437 nM.

Consider `CC[C@H](C)[C@H](NC(=O)[C@H](CC(C)C)NC(=O)[C@H](Cc1ccc(O)cc1)NC(=O)[C@H](CCC(=O)O)NC(=O)[C@@H](NC(=O)[C@H](Cc1ccccc1)NC(=O)[C@H](C)NC(=O)C(C)(C)NC(=O)[C@H](CCC(N)=O)NC(=O)[C@H](C)NC(=O)[C@H](CCCCNC(=O)COCCOCCNC(=O)COCCOCCNC(=O)CC[C@H](NC(=O)CCCCCCCCCCCCCCCCC(=O)O)C(=O)O)NC(=O)[C@H](CCCCN)NC(=O)[C@H](CC(=O)O)NC(=O)[C@H](CC(C)C)NC(=O)[C@H](CC(C)C)NC(=O)[C@@H](NC(=O)[C@H](CO)NC(=O)[C@H](Cc1ccc(O)cc1)NC(=O)[C@H](CC(=O)O)NC(=O)[C@H](CO)NC(=O)[C@@H](NC(=O)[C@](C)(Cc1ccccc1)NC(=O)[C@@H](NC(=O)CNC(=O)[C@H](CCC(=O)O)NC(=O)C(C)(C)NC(=O)[C@@H](N)Cc1ccc(O)cc1)[C@@H](C)O)[C@@H](C)O)[C@@H](C)CC)[C@@H](C)CC)C(=O)N[C@@H](C)C(=O)NCC(=O)NCC(=O)N1CCC[C@H]1C(=O)N[C@@H](CO)C(=O)N[C@@H](CO)C(=O)NCC(N)=O` [Example 309] (H-Y[Aib]EGT[αMeF]TSDYSILLDKK([AEEA-AEEA-γGlu-C18 diacid])AQ[Aib]AFIEYLIAGGPSSG-NH2), for which the Ki on human Gcg receptor is 64.1 nM; on human GIP receptor, 0.0264 nM; at human GLP-1R, 1.04 nM. Besides, the concentration for a half-maximal effect (EC50) in assay [1] worked out at 0.033 nM; in assay [2], 0.0389 nM.

For the compound `CC[C@H](C)[C@H](NC(=O)[C@H](CC(C)C)NC(=O)[C@](C)(Cc1ccc(O)cc1)NC(=O)[C@@H](CCC(=O)O)NC(=O)[C@@H](NC(=O)[C@H](Cc1ccccc1)NC(=O)[C@H](CCC(=O)O)NC(=O)C(C)(C)NC(=O)[C@H](CCC(N)=O)NC(=O)[C@H](C)NC(=O)[C@H](CCCCNC(=O)COCCOCCNC(=O)COCCOCCNC(=O)CC[C@H](NC(=O)CCCCCCCCCCCCCCCCC(=O)O)C(=O)O)NC(=O)[C@H](CCCN)NC(=O)[C@H](CC(=O)O)NC(=O)[C@H](CC(C)C)NC(=O)[C@](C)(CC(C)C)NC(=O)[C@@H](NC(=O)[C@H](CO)NC(=O)[C@H](CC(C)C)NC(=O)[C@H](CC(=O)O)NC(=O)[C@H](CO)NC(=O)[C@@H](NC(=O)[C@](C)(Cc1ccccc1F)NC(=O)[C@@H](NC(=O)CNC(=O)[C@H](CCC(=O)O)NC(=O)C(C)(C)NC(=O)[C@@H](N)Cc1ccc(O)cc1)[C@@H](C)O)[C@@H](C)O)[C@@H](C)CC)[C@@H](C)CC)C(=O)N[C@@H](CCC(=O)O)C(=O)NCC(=O)NCC(=O)N1CCC[C@H]1C(=O)N[C@@H](CO)C(=O)N[C@@H](CO)C(=O)NCC(=O)N[C@@H](C)C(=O)N1CCC[C@H]1C(=O)N1CCC[C@H]1C(=O)N1CCC[C@H]1C(=O)N[C@@H](CO)C(N)=O` [Example 238] (H-Y[Aib]EGT[αMePhe(2-F)]TSDLSI[αMeL]LD[Orn]K([AEEA-AEEA-γGlu-C18 diacid])AQ[Aib]EFI[dE][αMeY]LIEGGPSSGAPPPS-NH2), the Ki at human Gcg receptor came out at 230 nM; on human GIP receptor it was 0.0403 nM; at human GLP-1R, 0.548 nM. In addition, the EC50 in assay [1] is 0.0241 nM; in assay [2], 0.0296 nM.

For `CC[C@H](C)[C@H](NC(=O)[C@H](CC(C)C)NC(=O)[C@H](Cc1ccc(O)cc1)NC(=O)[C@H](CCC(=O)O)NC(=O)[C@@H](NC(=O)[C@H](Cc1ccccc1)NC(=O)[C@H](C)NC(=O)C(C)(C)NC(=O)[C@H](CCC(N)=O)NC(=O)[C@H](C)NC(=O)[C@H](CCCCNC(=O)COCCOCCNC(=O)COCCOCCNC(=O)CC[C@H](NC(=O)CCCCCCCCCCCCCCCCCCC(=O)O)C(=O)O)NC(=O)[C@H](CCC(=O)O)NC(=O)[C@H](CC(=O)O)NC(=O)[C@H](CC(C)C)NC(=O)[C@](C)(CC(C)C)NC(=O)[C@@H](NC(=O)[C@H](CO)NC(=O)[C@H](Cc1ccc(O)cc1)NC(=O)[C@H](CC(=O)O)NC(=O)[C@H](CO)NC(=O)[C@@H](NC(=O)[C@](C)(Cc1ccccc1)NC(=O)[C@@H](NC(=O)CNC(=O)[C@H](CCC(=O)O)NC(=O)C(C)(C)NC(=O)[C@@H](N)Cc1ccc(O)cc1)[C@@H](C)O)[C@@H](C)O)[C@@H](C)CC)[C@@H](C)CC)C(=O)N[C@@H](CCC(=O)O)C(=O)NCC(=O)NCC(=O)N1CCC[C@H]1C(=O)N[C@@H](CO)C(=O)N[C@@H](CO)C(=O)NCC(=O)N[C@@H](C)C(=O)N1CCC[C@H]1C(=O)N1CCC[C@H]1C(=O)N1CCC[C@H]1C(=O)N[C@@H](CO)C(N)=O` [Example 115] (H-Y[Aib]EGT[αMeF]TSDYSI[αMeL]LDEK([AEEA-AEEA-γGlu-C20 diacid])AQ[Aib]AFIEYLIEGGPSSGAPPPS-NH2), the Ki on human Gcg receptor came to 9.89 nM; on human GIP receptor it was 0.0302 nM; on human GLP-1R, 3.43 nM. Further, the EC50 worked out at 0.088 nM in assay [1] and 0.102 nM in assay [2].

Regarding `CC[C@H](C)[C@H](NC(=O)[C@H](CC(C)C)NC(=O)[C@H](Cc1ccc(O)cc1)NC(=O)[C@@H](CCC(=O)O)NC(=O)[C@@H](NC(=O)[C@H](Cc1ccccc1)NC(=O)[C@H](CCC(=O)O)NC(=O)C(C)(C)NC(=O)[C@H](CCC(N)=O)NC(=O)[C@H](C)NC(=O)[C@H](CCCCNC(=O)COCCOCCNC(=O)COCCOCCNC(=O)CC[C@H](NC(=O)CCCCCCCCCCCCCCCCC(=O)O)C(=O)O)NC(=O)[C@H](CCC(=O)O)NC(=O)[C@H](CC(=O)O)NC(=O)[C@H](CC(C)C)NC(=O)[C@](C)(CC(C)C)NC(=O)[C@@H](NC(=O)[C@H](CO)NC(=O)[C@H](Cc1ccc(O)cc1)NC(=O)[C@H](CC(=O)O)NC(=O)[C@H](CO)NC(=O)[C@@H](NC(=O)[C@](C)(Cc1ccccc1F)NC(=O)[C@@H](NC(=O)CNC(=O)[C@H](CCC(=O)O)NC(=O)C(C)(C)NC(=O)[C@@H](N)Cc1ccc(O)cc1)[C@@H](C)O)[C@@H](C)O)[C@@H](C)CC)[C@@H](C)CC)C(=O)N[C@@H](CCC(=O)O)C(=O)NCC(=O)NCC(N)=O` [Example 220] (H-Y[Aib]EGT[αMePhe(2-F)]TSDYSI[αMeL]LDEK([AEEA-AEEA-γGlu-C18 diacid])AQ[Aib]EFI[dE]YLIEGG-NH2; N-terminus assumed), the Ki at human Gcg receptor was determined as 377 nM; on human GIP receptor, 0.0919 nM; on human GLP-1R, 2.71 nM. Besides, the half-maximal effective concentration (EC50) in assay [1] came to 0.0312 nM; in assay [2], 0.0315 nM.
